This is an account of results in patent publication US20120114823A1, “Feed Additive For Improved Pigment Retention” (TROUW INTERNATIONAL B.V., priority 2009, published 2012).

Read-outs that look alike come from different tables or passages of the source.

Series [1] concerns salmon (S. salar). Nature of the series: Feeding test with ferulic acid in astaxanthin feed, retention of astaxanthin in fish muscle (Example 2). Type of series: in vivo, Salmo salar. How it is done: The test was carried out with salmon (S. salar) from May 4th to August 20th. The test was carried out in vessels having a diameter of 1 metre. The vessels were filled with seawater and the water temperature varied between 8.3 and 11.8° C. in the period. There were 30 fish in each vessel having a mean weight of 0.2 kg at the start. The control group consisted of two vessels per diet, while the test group consisted of one vessel at medium inclusion of ferulic acid and two vessels per diet at low inclusion of ferulic acid.
The feed had the following main component composition: 44.5% protein; 28.2% fat; 7.6% water and 7.2% ash.
The test feed had the same composition as shown in table 2 and had in addition added ferulic acid as dry powder in meal mix before extrusion. Ferulic acid was added at two levels: low and medium, where the levels are defined as in example 1.
Each feed was formulated with two levels of astaxanthin, 20 and 40 mg/kg.
At the termination of the test the fish weighed 0.7 kg as an average. […] The fish were filleted and the fillet analysed for astaxanthin. Thirty fish per vessel were analysed individually with NIR.

In series [2] the test system is sea bream. The conditions noted are these: cited from earlier work.
The subject of series [3] is salmon (S. salar). Nature of the series: Feeding test with gallic acid in astaxanthin feed, retention of astaxanthin in fish muscle (Example 1). Type of series: in vivo, Salmo salar. As to conditions: for retention of astaxanthin in fish muscle: 5.5 months. How it is done:
The test was carried out on salmon (S. salar) over a 5.5-month period between November 11 and May 5. The test was carried out in vessels having a diameter of 1 metre. The vessels were filled with seawater and the water temperature varied between 8 and 12° C. in the period. There were 34-35 fish in each vessel. Mean weight at start was 118 g. The control group consisted of three vessels, while each test group consisted of one vessel.
The feeds had the following main component composition: 43.5% protein; 27.7% fat; 7.8% water and 8.0% ash.
There was produced feed having three different levels of astaxanthin, 15, 30 and 45 mg astaxanthin/kg respectively, both of the control feeds and the test feeds, by that different amounts of Carophyll Pink were added to the meal mixture before extrusion.
Adding gallic acid into the meal mix to the same recipe as the control feeds provided the test feeds. Gallic acid was added in four levels to the test feeds, low, medium, high and very high, respectively. Low level corresponds to an inclusion level of between 10 and 75 ppm, represented in the examples with an inclusion level of 15 ppm, medium level corresponds to an inclusion level of between 76 and 750 ppm, represented in the examples with an inclusion level of 400 ppm, high level corresponds to an inclusion level of between 751 and 1500 ppm, represented in the example with an inclusion level of 1200 ppm, and very high level corresponds to an inclusion level of over 1500 ppm, represented in the example with an inclusion level of 3600 ppm.
At the termination of the test the fish weighed in average 557 g. SGR was between 0.84%/d and 0.89%/d. The fish were filleted and the fillets were analysed for chemical astaxanthin in duplicates of pooled samples of fillets. Astaxanthin was analysed with HPLC according to a method developed by Roche with modifications.

For series [4], the system named is rainbow trout. As to conditions: oral via feed; cited from earlier work.
Series [5] relates to rainbow trout. As to conditions: rainbow trout fed two months; feed with 80 ppm astaxanthin, alone or with 160 ppm proantocyanidin (0.1% KPA-F); cited from earlier work.

For the molecule `COc1cc(C=CC(=O)O)ccc1O` [ferulic acid, 3-(4-hydroxy-3-metoxyphenol)prop-2-enoic acid], the “effect on the retention of astaxanthin” value in series [1] (low level of ferulic acid (15 ppm), feed contained less than 20 ppm of astaxanthin) was “favourable effect on the retention of astaxanthin”; in series [1] (medium level of ferulic acid (400 ppm), feed contained more than 30 ppm of astaxanthin), “favourable effect on the retention of astaxanthin”. Moreover, the “increase in the level of astaxanthin in fish skin” value in series [2] (1000 ppm ferulic acid) was “mild increase”; in series [2] (only 100 ppm ferulic acid) it was “no increase”.
`O=C(O)c1cc(O)c(O)c(O)c1` [gallic acid, 3,4,5-hydroxybenzoic acid]: the “retention of astaxanthin versus control” value in series [3] (astaxanthin content in the feeds approx. 40 ppm) is “little difference in the retention”. In addition, the “retention of astaxanthin in fish muscle” value is “hamper the retention of astaxanthin” in series [3] (high inclusion levels of gallic acid in feed (751-1500 ppm, represented by 1200 ppm)) and “worse retention than at the other tested levels” in series [3] (very high level of gallic acid in feed (over 1500 ppm, represented by 3600 ppm)). Further, in series [3] (lowest inclusion level of gallic acid (15 ppm) compared with medium level (400 ppm)), the “effect on the retention of astaxanthin” value is recorded as “equally good effect on the retention of astaxanthin as a medium level”.
In the case of `CC1=C(/C=C/C(C)=C/C=C/C(C)=C/C=C/C=C(C)/C=C/C=C(C)/C=C/C2=C(C)C(=O)C(O)CC2(C)C)C(C)(C)CC(O)C1=O` (stereo not drawn) [astaxanthin, 3,3′-dihydroxy β,β-carotene-4,4′-dion], the “share of added astaxanthin in the feed deposited in the fish meat” value in series [4] is “up to 15%”. Moreover, in series [5], the “chemical content of astaxanthin in the muscle at the end of the experiment” value was 6.57 ppm.
